From US11639350B2, “Heteroaryldihydropyrimidine derivatives and methods of treating hepatitis B infections” (Janssen Pharmaceutica NV, priority 2018, dated 2023) come the findings set out here.

Like-named read-outs stand apart in the source and are kept apart here.

The subject of one series is HBV. The series is described as follows: HBV inhibitory activity: HBV DNA in the culture medium of HepG2.2.15 cells by q-PCR. The class given is cell-based. The settings on record: HepG2.2.15 cells, 6 days of compound treatment, HBV DNA in culture medium by q-PCR, highest concentration 10 μM, read-out: EC50. A digest of the protocol: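 HepG2.2.15 cells in 2% FBS medium, 40,000 per well, treated 6 days with compound (medium refreshed once), eight 3-fold dilutions from 10 μM top. HBV DNA extracted from culture medium and quantified by q-PCR; EC50 averaged over repeats. Cytotoxicity run in parallel at 5,000 cells per well, top 100 μM, giving CC50.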

The next series concerns HepG2.2.15 cells. The series can be described thus: Cytotoxicity determination in HepG2.2.15 cells (CCK-8). In kind it is cell-based. The settings on record: 6 days of compound treatment, CCK-8, highest concentration 100 μM. A digest of the protocol:
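HepG2.2.15 cells seeded at 5,000 cells/well in 2% FBS medium, incubated overnight at 37° C., then treated 6 days with compounds (8 points, 3-fold dilutions, top 100 μM), medium refreshed once midway. CCK-8 added for 2.5 h; A450 read against 630 nm reference; CC50 calculated, averaged over repeats.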

For orientation: EC50 means the concentration giving half of the maximal effect. The term CC50 denotes the concentration giving 50% cytotoxicity. In the case of `COC(=O)C1=C(C2CCN(S(=O)(=O)[C@H]3C[C@H](C(=O)O)C3)CC2)NC(c2nccs2)=NC1c1ccc(F)c(F)c1Cl` (single isomer, unassigned) [Compound 232X, (trans)-3-((4-(6-(2-Chloro-3,4-difluorophenyl)-5-(methoxycarbonyl)-2-(thiazol-2-yl)-3,6-dihydropyrimidin-4-yl)piperidin-1-yl)sulfonyl)cyclobutanecarboxylic Acid], the EC50 in the series with HBV worked out at 105 nM. This compound had a CC50 in the series with HepG2.2.15 cells of 70000 nM.

As for `CCOC(=O)C1=C(C2CCN(S(=O)(=O)C3CC(C)(C(=O)O)C3)CC2)NC(c2nccs2)=NC1c1ccc(F)cc1Br` (single isomer, unassigned) [Compound 282C, (trans)-3-((4-(−6-(2-Bromo-4-fluorophenyl)-5-(ethoxycarbonyl)-2-(thiazol-2-yl)-3,6-dihydropyrimidin-4-yl)piperidin-1-yl)sulfonyl)-1-methylcyclobutanecarboxylic Acid], the EC50 in the series on HBV stood at 15 nM. In addition, the half-maximal cytotoxic concentration (CC50) with HepG2.2.15 cells was found to be 15700 nM.

As for `COC(=O)C1=C([C@H]2CC[C@H](NS(C)(=O)=O)CC2)NC(c2ncc(F)cc2F)=NC1c1ccc(F)c(F)c1Cl` (stereo partly drawn) [Compound 298B], in the series on HBV, the concentration giving a half-maximal response (EC50) worked out at 17 nM. The same compound showed a CC50 with HepG2.2.15 cells of 13200 nM.

Consider `COC(=O)C1=C(C2CCNC(=O)C2)NC(c2nccs2)=NC1c1ccc(F)cc1Cl` (single isomer, unassigned) [Compound 3C, Methyl 4-(2-chloro-4-fluorophenyl)-6-(2-oxopiperidin-4-yl)-2-(thiazol-2-yl)-1,4-dihydro-pyrimidine-5-carboxylate], for which, in the series on HBV, the concentration giving a half-maximal response (EC50) turned out to be 132 nM. Further, it took 5600 nM to reach half-maximal cytotoxicity in the series on HepG2.2.15 cells (CC50).

Take `CCOC(=O)C1=C([C@@H]2C[C@H]2CC(=O)O)NC(c2nccs2)=NC1c1ccc(F)cc1Cl` (single isomer, unassigned) [Compound 93, 2-(trans-2-(6-(2-Chloro-4-fluorophenyl)-5-(ethoxycarbonyl)-2-(thiazol-2-yl)-3,6-dihydropyrimidin-4-yl)cyclopropyl)acetic Acid]: the 50% effective concentration (EC50) in the series on HBV was 507 nM. The same compound displayed a cytotoxic concentration (CC50) with HepG2.2.15 cells of 92500 nM.

Turning to `CCOC(=O)C1=C(C2CCN(S(=O)(=O)C3CC(C)(C(=O)O)C3)CC2)NC(c2nccs2)=NC1c1cccc(F)c1Cl` (single isomer, unassigned) [Compound 321A, (trans)-3-((4-(6-(2-Chloro-3-fluorophenyl)-5-(ethoxycarbonyl)-2-(thiazol-2-yl)-3,6-dihydropyrimidin-4-yl)piperidin-1-yl)sulfonyl)-1-methylcyclobutanecarboxylic Acid], in the series on HBV, the EC50 worked out at 12 nM. Further, the CC50 in the series with HepG2.2.15 cells is 17200 nM.

Consider `COC(=O)C1=C([C@H]2CCC[C@@H](CO)C2)NC(c2nccs2)=NC1c1ccc(F)cc1Cl` (single isomer, unassigned) [Compound 173C, Methyl 4-(2-chloro-4-fluorophenyl)-6-((cis)-3-(hydroxymethyl)cyclohexyl)-2-(thiazol-2-yl)-1,4-dihydropyrimidine-5-carboxylate], for which the EC50 in the series on HBV stood at 107 nM. Further, the CC50 in the series with HepG2.2.15 cells was 9900 nM.

For the compound `COC(=O)C1=C(C2CCN(S(=O)(=O)C3CC(C)(C(=O)O)C3)CC2)NC(c2nccs2)=NC1c1ccc(F)cc1Cl` (stereo not drawn) [Compound 142, (cis)-3-((4-(6-(2-chloro-4-fluorophenyl)-5-(methoxycarbonyl)-2-(thiazol-2-yl)-3,6-dihydropyrimidin-4-yl)piperidin-1-yl)sulfonyl)-1-methylcyclobutane-1-carboxylic Acid], the EC50 in the series with HBV was found to be 89 nM. The compound also had a CC50 in the series with HepG2.2.15 cells of 37600 nM.

As to `COC(=O)C1=C(C2CCN(S(C)(=N)=O)CC2)NC(c2nccs2)=NC1c1ccc(F)c(F)c1Cl` (stereo not drawn) [Compound 205B, methyl 4-(2-chloro-3,4-difluorophenyl)-6-(1-(S-methylsulfonimidoyl)piperidin-4-yl)-2-(thiazol-2-yl)-1,4-dihydropyrimidine-5-carboxylate], the EC50 in the series with HBV is 189 nM. The compound also returned a CC50 in the series on HepG2.2.15 cells of 40500 nM.

For the compound `COC(=O)C1=C(C2CCC(=O)N2)NC(c2nccs2)=NC1c1cccc(F)c1Cl` (single isomer, unassigned) [Compound 75D, Methyl 4-(2-chloro-3-fluorophenyl)-6-(5-oxopyrrolidin-2-yl)-2-(thiazol-2-yl)-1,4-dihydropyrimidine-5-carboxylate], in the series with HBV, the 50% effective concentration (EC50) was 45 nM. This compound also had a CC50 with HepG2.2.15 cells of 10200 nM.

Regarding `CCOC(=O)C1=C(C2CCN(S(=O)(=O)C3CC(C)(C(=O)O)C3)CC2)NC(c2nccs2)=NC1c1cccc(F)c1C` (single isomer, unassigned) [Compound 429D, (cis)-3-((4-(−5-(Ethoxycarbonyl)-6-(3-fluoro-2-methylphenyl)-2-(thiazol-2-yl)-3,6-dihydropyrimidin-4-yl)piperidin-1-yl)sulfonyl)-1-methylcyclobutanecarboxylic Acid], the half-maximal effective concentration (EC50) in the series with HBV came to 49 nM. Also, the CC50 in the series on HepG2.2.15 cells was 16000 nM.

On to `COC(=O)C1=C(C2CCC(NC(C)=O)C2)NC(c2nccs2)=NC1c1ccc(F)c(F)c1Cl` (single isomer, unassigned) [Compound 300G, Methyl 6-(−3-acetamidocyclopentyl)-4-(2-chloro-3,4-difluorophenyl)-2-(thiazol-2-yl)-1,4-dihydropyrimidine-5-carboxylate], for which the EC50 in the series with HBV turned out to be 122 nM. In the series on HepG2.2.15 cells, this compound registered a 50% cytotoxic concentration (CC50) of 23900 nM.

As for `COC(=O)C1=C(C2CCC(NS(C)(=O)=O)C2)NC(c2nccs2)=NC1c1cccc(F)c1Cl` (single isomer, unassigned) [Compound 61G, Methyl 4-(2-chloro-3-fluorophenyl)-6-(3-(methylsulfonamido)-cyclopentyl)-2-(thiazol-2-yl)-1,4-dihydropyrimidine-5-carboxylate], the concentration for a half-maximal effect (EC50) with HBV is 423 nM. This compound also gave a CC50 with HepG2.2.15 cells of over 10000 nM.

With `CCOC(=O)C1=C(C2CCN(S(=O)(=O)C3CC(C)(C(=O)O)C3)CC2)NC(c2nccs2)=NC1c1ccc(F)cc1Br` (single isomer, unassigned) [Compound 282D, (cis)-3-((4-(6-(2-Bromo-4-fluorophenyl)-5-(ethoxycarbonyl)-2-(thiazol-2-yl)-3,6-dihydropyrimidin-4-yl)piperidin-1-yl)sulfonyl)-1-methylcyclobutanecarboxylic Acid], the concentration giving a half-maximal response (EC50) in the series with HBV is 39 nM. Moreover, half-maximal cytotoxicity in the series on HepG2.2.15 cells (CC50) was put at 11200 nM.

In the case of `COC(=O)C1=C(C2CCC(NC(C)=O)C2)NC(c2nccs2)=NC1c1cccc(F)c1Cl` (single isomer, unassigned) [Compound 62D, Methyl 6-(3-acetamidocyclopentyl)-4-(2-chloro-3-fluorophenyl)-2-(thiazol-2-yl)-1,4-dihydropyrimidine-5-carboxylate], the 50% effective concentration (EC50) in the series with HBV worked out at 892 nM. The 50% cytotoxic concentration (CC50) in the series on HepG2.2.15 cells was 75100 nM.

With `CCOC(=O)C1=C(C2CCN(S(=O)(=O)C3CC(CC(=O)O)C3)CC2)NC(c2nccs2)=NC1c1ccc(F)c(F)c1Cl` (stereo not drawn) [Compound 482B, 2-(3-((4-(6-(2-Chloro-3,4-difluorophenyl)-5-(ethoxycarbonyl)-2-(thiazol-2-yl)-3,6-dihydropyrimidin-4-yl)piperidin-1-yl)sulfonyl)cyclobutyl)acetic Acid], the EC50 in the series with HBV is 11 nM. The cytotoxic concentration (CC50) in the series with HepG2.2.15 cells turned out to be 11300 nM.

With `COC(=O)C1=C(C2CCC(NC(C)=O)C2)NC(c2nccs2)=NC1c1cccc(F)c1Cl` (single isomer, unassigned) [Compound 62G, Methyl 6-(3-acetamidocyclopentyl)-4-(2-chloro-3-fluorophenyl)-2-(thiazol-2-yl)-1,4-dihydropyrimidine-5-carboxylate], the EC50 in the series on HBV turned out to be 119 nM. Besides, the CC50 in the series on HepG2.2.15 cells was 37100 nM.

Regarding `COC(=O)C1=C(C2CCN(C)C(=O)C2)NC(c2nccs2)=NC1c1ccc(F)cc1Cl` (single isomer, unassigned) [Compound 1B, Methyl 4-(2-chloro-4-fluorophenyl)-6-(1-methyl-2-oxopiperidin-4-yl)-2-(thiazol-2-yl)-1,4-dihydropyrimidine-5-carboxylate], the concentration giving a half-maximal response (EC50) in the series on HBV was found to be 96 nM. In addition, in the series with HepG2.2.15 cells, half-maximal cytotoxicity (CC50) was put at 13600 nM.

Take `COC(=O)C1=C(C2CCN(S(=O)(=O)C3CC(C)(C(=O)OC)C3)CC2)NC(c2nccs2)=NC1c1ccc(F)c(F)c1Cl` (single isomer, unassigned) [Compound 323D, cis-methyl 4-(2-chloro-3,4-difluorophenyl)-6-(1-((3-(methoxycarbonyl)-3-methylcyclobutyl)sulfonyl)piperidin-4-yl)-2-(thiazol-2-yl)-1,4-dihydropyrimidine-5-carboxylate]: the 50% effective concentration (EC50) in the series on HBV turned out to be 30 nM. For the same compound, half-maximal cytotoxicity with HepG2.2.15 cells (CC50) was put at 28600 nM.

Consider `COC(=O)C1=C(C2CCN(S(C)(=O)=O)C2)NC(c2nccs2)=NC1c1ccc(F)cc1Cl` (single isomer, unassigned) [Compound 65A, 4-(2-Chloro-4-fluoro-phenyl)-6-(1-methanesulfonyl-pyrrolidin-3-yl)-2-thiazol-2-yl-1,4-dihydro-pyrimidine-5-carboxylic Acid Methyl Ester], for which the 50% effective concentration (EC50) with HBV (Hepatitis B virus, HepG2.2.15, 144 h) was 425 nM. Also, in the series with HepG2.2.15 cells, the CC50 turned out to be 69100 nM.

On to `CCOC(=O)C1=C(C2CCN(S(=O)(=O)[C@H]3C[C@](C)(C(=O)O)C3)CC2)NC(c2nccs2)=NC1c1ccc(F)c(F)c1Cl` (stereo partly drawn) [Compound 270A, (trans)-3-((4-(6-(2-Chloro-3,4-difluorophenyl)-5-(ethoxycarbonyl)-2-(thiazol-2-yl)-3,6-dihydropyrimidin-4-yl)piperidin-1-yl)sulfonyl)-1-methylcyclobutanecarboxylic Acid], for which, in the series with HBV, the 50% effective concentration (EC50) amounted to 12 nM. Further, it took 9200 nM to reach half-maximal cytotoxicity with HepG2.2.15 cells (CC50).
